The record followed here is ChEMBL document CHEMBL1201862, “PubChem BioAssay data set” (2004).

Some test systems named below: CAKI-1; CCRF-CEM; DU-145; HCC 2998; HT-29; Hs-578T; MCF7; MDA-MB-231; MDA-MB-435; NCI-H23; OVCAR-5; SF-295; SK-MEL-2; SR; SW-620; T47D; U-251; K562; NCI-H460.
Common to all, as to assay: growth of human tumour cells (NCI), 48 h

SMILES strings stand for the structures.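 Where inhibition never reached the appropriate level, the endpoint shown equals the highest concentration tested. Otherwise, values were interpolated linearly from a five-concentration, 48-hour dose response in 96-well plates. GI50 marks 50% less growth.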 The source made the active and inactive calls. Cut-off read from the data, not from the text of the source: active = GI50 up to about 1.1 µM and inactive = higher.

As to `O=C1NC(N2CCCCC2)=N/C1=C\c1cccs1`, the GI50 in the assay on CAKI-1, in the assay with CCRF-CEM, in the assay with DU-145, with HCC 2998, in the assay on HT-29 and in the assay with Hs-578T was > 100 µM (inactive) throughout. The GI50 in the assay on MCF7, with MDA-MB-231, with MDA-MB-435, in the assay with NCI-H23, in the assay on OVCAR-5 and in the assay with SF-295 was > 100 µM (inactive) throughout. The GI50 with SK-MEL-2, with SR, in the assay with SW-620, with T47D and with U-251 was > 100 µM (inactive) each time.
Turning to `CC(=O)NC1C(OCc2ccccc2)OC(CO)C(O)C1OC(C)C(=O)NC(C(=O)NC(CCC(=O)NCCCCNc1c2ccccc2nc2cccc([N+](=O)[O-])c12)C(N)=O)C(C)C` (stereo not given), the GI50 with CAKI-1 is 3.37 µM (inactive); in the assay on DU-145 it was 2.55 µM (inactive); in the assay on HCC 2998, 1.01 µM (active); with HT-29 it was 1.14 µM (inactive); in the assay on Hs-578T, 8.57 µM (inactive); in the assay on K562 it was 0.458 µM (active). Further, the GI50 in the assay with MCF7 was 0.499 µM (active); with MDA-MB-231 it was 2.71 µM (inactive); in the assay on MDA-MB-435 it was 1.45 µM (inactive); in the assay on NCI-H23 it was 1.79 µM (inactive); in the assay on NCI-H460, 0.887 µM (active); in the assay on OVCAR-5, 2.71 µM (inactive). Moreover, the GI50 in the assay on SF-295 was 4.99 µM (inactive); with SK-MEL-2, 2.52 µM (inactive); in the assay on SR, 0.178 µM (active); in the assay on SW-620, 0.993 µM (active); in the assay on T47D, 1.82 µM (inactive); in the assay on U-251 it was 3.21 µM (inactive).
For the compound `COc1ccc(-c2cc(-c3ccco3)c(C#N)c(=S)n2C2OC(COC(C)=O)C(OC(C)=O)C(OC(C)=O)C2OC(C)=O)cc1` (stereo not given), the GI50 in the assay on CAKI-1 was 3.98 µM (inactive); in the assay on DU-145, 7.94 µM (inactive); in the assay with HCC 2998 it was 14.9 µM (inactive); in the assay on HT-29, 3.24 µM (inactive); in the assay with Hs-578T, 3.15 µM (inactive); in the assay with K562, 2.43 µM (inactive). Besides, the GI50 was 23.6 µM (inactive) in the assay on MCF7; 4.47 µM (inactive) with MDA-MB-231; 7.71 µM (inactive) in the assay on MDA-MB-435; 9.71 µM (inactive) in the assay with NCI-H23; 5.11 µM (inactive) in the assay with NCI-H460; 15.6 µM (inactive) in the assay with OVCAR-5. For the same compound, the GI50 with SF-295 is 1.96 µM (inactive); in the assay on SR, > 10 µM (inactive); with SW-620, 6.19 µM (inactive); with T47D it was 5.24 µM (inactive); with U-251, 5.94 µM (inactive).
With `c1ccc2c(c1)Sc1ccccc1N2CCCN1c2ccccc2Sc2ccccc21`, the GI50 with CAKI-1 was > 100 µM (inactive); in the assay on DU-145, > 100 µM (inactive); with HCC 2998, > 100 µM (inactive); with HT-29, > 100 µM (inactive); in the assay with Hs-578T, 41.2 µM (inactive); with K562 it was > 100 µM (inactive). In addition, the GI50 with MCF7 was > 100 µM (inactive); in the assay on MDA-MB-231, > 100 µM (inactive); with MDA-MB-435 it was 58.9 µM (inactive); in the assay with NCI-H23, > 100 µM (inactive); in the assay with NCI-H460 it was 39.9 µM (inactive); with OVCAR-5, > 100 µM (inactive). The GI50 in the assay with SF-295 was > 100 µM (inactive); in the assay with SR, > 100 µM (inactive); in the assay with SW-620, > 100 µM (inactive); with T47D it was > 100 µM (inactive); with U-251, 45.9 µM (inactive).
In the case of `COC(=O)[C@@H]1Cc2ccc(OC)c(c2)OCCC(=O)N1`, the GI50 in the assay with CAKI-1, with CCRF-CEM, with DU-145, in the assay with HCC 2998, with HT-29 and in the assay with Hs-578T was > 100 µM (inactive) throughout. Further, the GI50 with K562, in the assay with MCF7, in the assay on MDA-MB-231, in the assay on MDA-MB-435, in the assay on NCI-H23 and in the assay on OVCAR-5 was > 100 µM (inactive) each time. The GI50 with SF-295 is > 100 µM (inactive); with SK-MEL-2 it was > 100 µM (inactive); in the assay on SR, 32.6 µM (inactive); in the assay on SW-620 it was > 100 µM (inactive); in the assay on T47D, > 100 µM (inactive); in the assay on U-251, > 100 µM (inactive).
As to `COC(=O)C(I(OS(=O)(=O)c1ccc(C)cc1)c1ccccc1)=P(c1ccccc1)(c1ccccc1)c1ccccc1`, the GI50 was 40.2 µM (inactive) with CAKI-1; 10.3 µM (inactive) in the assay with CCRF-CEM; 15.9 µM (inactive) with DU-145; 19.2 µM (inactive) in the assay with HCC 2998; 20.6 µM (inactive) with HT-29; 24.7 µM (inactive) in the assay with Hs-578T. Besides, the GI50 with K562 is 12.7 µM (inactive); in the assay on MCF7 it was 30.3 µM (inactive); with MDA-MB-231, 30.1 µM (inactive); with MDA-MB-435 it was 18 µM (inactive); in the assay with NCI-H23, 16.8 µM (inactive); with NCI-H460 it was 29.9 µM (inactive). Moreover, the GI50 with OVCAR-5 is 28.6 µM (inactive); in the assay on SF-295, 30.1 µM (inactive); in the assay with SK-MEL-2, 18.2 µM (inactive); with SR it was 19.4 µM (inactive); in the assay on T47D, 15.9 µM (inactive); with U-251 it was 20.7 µM (inactive).
For the compound `CCOC(=O)/C=C/C(=O)O/C=C/[N+](=O)[O-]`, the GI50 in the assay with CAKI-1 is 33.3 µM (inactive); with CCRF-CEM it was 4.54 µM (inactive); with DU-145, > 100 µM (inactive); with HCC 2998, > 100 µM (inactive); in the assay on HT-29 it was > 100 µM (inactive); with Hs-578T it was > 100 µM (inactive). The GI50 with MCF7, in the assay with MDA-MB-231, in the assay on MDA-MB-435, with NCI-H23, with NCI-H460 and in the assay with OVCAR-5 was > 100 µM (inactive) in each case. Also, the GI50 in the assay on SF-295, in the assay with SR, with SW-620, in the assay on T47D and with U-251 was > 100 µM (inactive) each time.
For the compound `CN1CN(c2ccccc2)C2(CCN(C3Nc4ccccc4O3)CC2)C1=O` (stereo not given), the GI50 was 25.5 µM (inactive) with CAKI-1; 13.2 µM (inactive) with CCRF-CEM; 22.7 µM (inactive) in the assay with DU-145; 17.9 µM (inactive) in the assay with HT-29; 12.9 µM (inactive) in the assay with Hs-578T; 18.5 µM (inactive) in the assay on K562. In addition, the GI50 was 19.5 µM (inactive) in the assay on MCF7; 20.1 µM (inactive) with MDA-MB-231; 19 µM (inactive) in the assay with MDA-MB-435; 21.2 µM (inactive) with NCI-H23; 17.7 µM (inactive) in the assay on NCI-H460; 17.6 µM (inactive) in the assay with OVCAR-5. In addition, the GI50 with SF-295 was 16.6 µM (inactive); in the assay on SK-MEL-2, 13.6 µM (inactive); in the assay on SR it was 36.9 µM (inactive); in the assay on SW-620 it was 33.7 µM (inactive); in the assay on T47D it was 22.2 µM (inactive); in the assay on U-251, 18.2 µM (inactive).
